Measurements reported in patent US20160060660A1, “BIOTECHNOLOGICAL PRODUCTION OF ITACONIC ACID” (UNIVERSITÉ DU LUXEMBOURG, priority 2013, published 2016).
Where two headings read alike, the source gives them in different places.

Columns and labels:
[1] = test system: Mycobacterium tuberculosis H37Rv; format: cell-based
[2] = test system: Salmonella enterica serovar Typhimurium
Protocol: Salmonella enterica serovar Typhimurium bacteria were grown in liquid medium as detailed in the text in the presence different concentrations of itaconic acid or cis-aconitate (5, 10, 50, 100 mM). Growth was measured as optical density (OD) at indicated time points.

[3] = test system: human PBMCs-derived macrophages; experiment: NO donor treatment of human PBMCs-derived macrophages, itaconic acid levels; format: cell-based; details: 1, 10, 100 μM, with or without LPS, 12 h
Protocol: Human PBMCs were seeded and differentiated into macrophages as described above. Diethylamine NONOate (DEA NONOate, Sigma), an intracellular NO donor, was added at different concentrations (1, 10, 100 μM) alone or together with LPS (100 μg/ml). After 12 h of incubation, the metabolites were extracted.
After 12 h, 180 μl of medium was harvested and combined with 20 μl of 1 mM NaOH on ice to stop the dissociation reaction. Levels of nitrite formed from the reaction with H2O were determined using the Griess assay. In brief, 50 μl of medium sample or nitrite IC standard (Sigma) was pipetted in triplicate in a 96-well plate. To each well, equal volumes of 1× Griess Reagent (Sigma) were added. Absorbance was read at 540 nm and nitrite concentrations were calculated.

Irg1 protein = target: T1, Irg1 protein (Mus musculus, UniProt P54987); experiment: Cis-aconitate decarboxylase activity of extracts and purified fractions from HEK293T cells transfected with pCMV6-Entry-Irg1; format: biochemical; details: 1 mM cis-aconitate, 30° C., 40 min
T1 construct: made in house; host or cells: HEK293T
T1 sequence (P54987 1-488): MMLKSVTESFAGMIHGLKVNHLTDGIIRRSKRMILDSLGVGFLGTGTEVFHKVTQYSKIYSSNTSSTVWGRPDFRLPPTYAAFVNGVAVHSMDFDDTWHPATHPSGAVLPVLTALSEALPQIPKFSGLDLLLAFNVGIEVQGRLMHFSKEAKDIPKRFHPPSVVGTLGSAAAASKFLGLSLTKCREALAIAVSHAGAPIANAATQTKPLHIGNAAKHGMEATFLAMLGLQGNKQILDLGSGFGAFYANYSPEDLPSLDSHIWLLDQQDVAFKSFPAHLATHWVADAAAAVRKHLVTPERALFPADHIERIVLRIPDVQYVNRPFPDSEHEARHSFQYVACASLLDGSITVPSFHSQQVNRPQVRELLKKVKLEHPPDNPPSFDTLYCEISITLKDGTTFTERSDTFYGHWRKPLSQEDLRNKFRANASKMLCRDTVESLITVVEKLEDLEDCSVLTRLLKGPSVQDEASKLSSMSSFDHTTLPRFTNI
Protocol: Protein concentration was measured by the Bradford assay using Bradford reagent (Bio-Rad). […] Reactions were stopped by addition of 900 μl methanol/water (8:1) mix. […] (Labconco).

human IRG1 = target: T2, human IRG1 (Homo sapiens, UniProt A6NK06); experiment: CAD activity assay, Michaelis-Menten kinetics of purified human IRG1; format: biochemical; details: substrate cis-aconitic acid 0 to 1 mmol/l, pH=6.2, 37° C., read-out: Michaelis-Menten constant KM for itaconic acid formation
T2 construct: made in house
T2 sequence (A6NK06 1-481): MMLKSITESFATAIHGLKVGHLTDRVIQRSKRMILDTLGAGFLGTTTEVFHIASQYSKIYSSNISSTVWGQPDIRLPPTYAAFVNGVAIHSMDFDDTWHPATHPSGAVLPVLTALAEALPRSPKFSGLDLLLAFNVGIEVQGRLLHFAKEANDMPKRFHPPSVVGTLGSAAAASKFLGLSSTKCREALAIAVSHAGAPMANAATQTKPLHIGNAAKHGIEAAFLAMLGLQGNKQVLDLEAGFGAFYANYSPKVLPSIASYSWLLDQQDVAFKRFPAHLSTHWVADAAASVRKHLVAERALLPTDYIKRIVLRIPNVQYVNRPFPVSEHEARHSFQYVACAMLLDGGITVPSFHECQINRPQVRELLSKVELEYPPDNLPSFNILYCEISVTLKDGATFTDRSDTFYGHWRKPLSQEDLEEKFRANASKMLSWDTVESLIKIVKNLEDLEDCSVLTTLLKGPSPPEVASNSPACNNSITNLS
Protocol: (§1) The purified proteins were then used for enzyme activity assays. Cis-aconitic acid was used as a substrate at concentrations in the range of 0 to 1 mmol*I^−1 at pH=6.2 and 37° C. To determine the time dependent itaconic acid production, itaconic acid level was measured after 5 and 15 min of incubation. To determine the correlation between itaconic acid production and IRG1 activity, the substrate concentrations were plotted against the rate of itaconic acid formation.
(§2) Proteins produced in HEK293FT cells, which have been transfected with human and mouse pCMV6-Irg1 overexpression plasmid as well as pCMV6-Entry plasmid, were purified, separated on SDS-Page, detected with western blotting or silver staining and characterized with in-vitro enzyme assays.
(§3) Enzyme solutions were used from F1 as well as F2 and cis-aconitic acid and citric acid were used as substrates. Sampling took place 5 min and 15 min after enzyme supplementation. 95 μl enzyme solution were transferred into sampling tubes containing 230 μl methanol at −20° C. and centrifuged for 10 min at 4° C. with 16,000×g. 290 μl were dried in glass vials under vacuum and analyzed with GC-MS. […] The kinetic parameter Km of the purified enzymes was determined with Michaelis-Menten model using the statistical tool R (R Development Core Team, 2011).

murine IRG1 = target: T3, murine IRG1 (Mus musculus, UniProt P54987); experiment: CAD activity assay, Michaelis-Menten kinetics of purified murine IRG1; format: biochemical; details: substrate cis-aconitic acid 0 to 1 mmol/l, pH=6.2, 37° C., read-out: Michaelis-Menten constant KM for itaconic acid formation
T3 construct: made in house
T3 sequence (P54987 1-488): T1 sequence (P54987 1-488)
Protocol: as §1, §2, §3

O=C(O)/C=C(/CC(=O)O)C(=O)O [cis-aconitate, cis-aconitic acid, reference compound]
effect on M. tuberculosis growth ([1]; medium supplemented with cis-aconitate, acetate or glycerol): more pronounced growth
effect on S. enterica growth ([2]; medium supplemented with cis-aconitate, acetate): more pronounced growth

CCN(CC)/[N+]([O-])=N/O.CCNCC [diethylamine NONOate, Diethylamine NONOate]
effect on intracellular itaconic acid levels [3]: could not detect any effect

C=C(CC(=O)O)C(=O)O [itaconic acid]
concentration at which growth of M. tuberculosis was completely inhibited [1]: 25 to 50 mM
effect on M. tuberculosis growth ([1]; glycerol as carbon source): does not affect the bacterial growth
concentration inhibiting M. tuberculosis growth ([1]; glycerol with 0.1 μM propionate): 5 to 10 mM
effect on S. enterica growth ([2]; glucose as carbon source): does not affect the bacterial growth
concentration at which significant effects on S. enterica growth were observed ([2]; liquid medium with acetate as unique carbon source): 10 mM

FLAG-tagged Irg1 protein: FLAG-tagged Irg1 protein from HEK293T cells transfected with pCMV6-Entry-Irg1; presumably murine Irg1
cis-aconitate decarboxylase activity (Irg1 protein): catalyzed the conversion of cis-aconitate to itaconic acid

IRG1 human: Flag-tagged human immune-responsive gene 1 protein (SEQ ID NO 2) purified from transfected HEK293T cells
Km (human IRG1): 30 µM

IRG1 mouse: Flag-tagged mouse immune-responsive gene 1 protein (SEQ ID NO 4) purified from transfected HEK293T cells
Km (murine IRG1): 70 µM
